pIC50: −log10 of the molar value.
System: SARS-CoV2 original Wuhan strain, Alpha, Delta and Omicron viruses
Assay: Replication of SARS-CoV-2 circulating forms in pulmonary A549-ACE2 cells
Assay type: cell-based
Settings: Severe acute respiratory syndrome coronavirus 2, read-out: IC50, block of viral replication of all variants

Question: O=S(=O)(c1ccccc1)n1c(-c2cncc(-c3cc4cc(OCc5ccccc5)ccc4n3S(=O)(=O)c3ccccc3)c2)cc2cc(OCc3ccccc3)ccc21 [AB-00011778] was tested. Which pIC50 did it give?
Answer: 6.00 to 6.30
